The text below walks through data of paper PMC6727465, “Discovery of 2-phenoxyacetamides as inhibitors of the Wnt-depalmitoleating enzyme NOTUM from an X-ray fragment screen” (MedChemComm, 2019).

What is called half-life is the time needed for the level to fall by half in the phase considered. High values mean slow loss, low ones fast loss. For orientation: inhibition means the percentage by which the read-out fell short of the control. Read a high inhibition as a strong effect. One may read the solubility (thermodynamic) as solubility found after equilibrating the solid with the medium. By Papp A→B is commonly meant how fast a substance crosses the layer from the apical side. What is called Papp B→A is the apparent permeability from the basolateral to the apical side of a cell layer.

Structures are written as SMILES. Values after ≈ are worked out from the molar mass of the structure shown. Like-named read-outs stand apart in the source and are kept apart here.

Data set [1] is described as follows: Metabolic stability in mouse liver microsomes. The data set is classed as in vitro ADME. Particulars: NADPH independent metabolism; for half-life: mouse. From the text: (§1) Selected compounds were screened for aqueous solubility, transit performance in MDCK-mdr1 cell
(§2) lines for permeability, and metabolic stability in human and mouse liver microsomes as a measure of
(§3) ADME studies reported in this work were independently performed by GVK Biosciences (Hyderabad,
(§4) India) and/or Cyprotex (Macclesfield, UK).
(§5) Cyptotex, UK. See: https://www.cyprotex.com/admepk
(§6) GVK Biosciences, India. See: https://www.gvkbio.com/discovery-services/biology-services/dmpk-
(§7) The MDCK-mdr1 cell line used in these experiments was supplied to GVK Biosciences from SOLVO

Data set [2] relates to Wnt/β-catenin signaling pathway TCF/LEF reporter (luciferase) HEK293 cell line with exogenous Wnt3a and NOTUM. Nature of the data set: cells. The data set is classed as cell-based. The conditions noted are these: for EC50: Wnt3a 100 ng mL^–1, NOTUM 500 ng mL^–1, n = 4, read-out: TCF/LEF reporter EC50, activation of Wnt signaling via inhibition of NOTUM.
Data set [3] in a line: Metabolic stability in human liver microsomes. It is filed as in vitro ADME. Particulars: NADPH independent metabolism.
From the text: as §1, §2, §3, §4, §5, §6, §7

Data set [4] is described as follows: Aqueous thermodynamic solubility. It is filed as physicochemical. The conditions noted are these: aqueous medium (not further specified), thermodynamic from solid.
From the text: as §1, §2, §3, §4, §5, §6, §7

Data set [5] in a line: MDCK-mdr1 cell permeability. It is filed as in vitro ADME. Particulars: dog.
From the text: as §1, §2, §3, §4, §5, §6, §7

For data set [6], the system named is MDCK-mdr1 cell line. Nature of the data set: MDCK-mdr1 cell permeability. It is filed as in vitro ADME. Particulars: MDCK-mdr1.
From the text: as §1, §2, §3, §4, §5, §6, §7

The nature of data set [7]: Hydrolytic stability in buffer systems. It is filed as physicochemical. Particulars: three buffer systems (pH 4, 7.4, 10), time points up to 18 h, UPLC-MS.

Take `Cc1ccccc1OCC(=O)Nc1cccnc1` [Compound 3, 2-(2-methylphenoxy)-N-(pyridine-3-yl)acetamide]: the half-life in data set [1] (liver microsomes) was 1.1 min.

With `Cc1ccccc1OCC(=O)Nc1ccc2nn[nH]c2c1` [Compound 39], in data set [1] (liver microsomes), the half-life was 1.8 min.

`Cc1ccccc1N(C)CC(=O)Nc1ccc2cnn(C)c2c1` [Compound 53]: in data set [1] (mouse liver microsomes), the half-life came to 5.2 min.

Regarding `Cc1ccccc1OCC(=O)Nc1cnccn1` [Compound 22], the “MLM (t1/2 min)” value in data set [1] is reported as “Not detected ^a”.

Regarding `Cc1ccccc1OCC(=O)Nc1ccc2cn(C)nc2c1` [Compound 35], the “Response in TCF/LEF reporter assay” value in data set [2] (dual activity: NOTUM inhibition and stabilizers of luciferase enzyme) was “supramaximal response”.

Take `Cc1ccccc1OCC(=O)N1CCc2ccccc2C1` [Compound 54]: the “MLM (t1/2 min)” value in data set [1] was “Not detected ^a”.

Regarding `O=C(COc1ccccc1Cl)Nc1ccc2cnccc2c1` [Compound 50], the half-life in data set [1] (liver microsomes) is 3.3 min.

For `Cc1ccccc1OCC(=O)Nc1ccc2cn(C(C)C)nc2c1` [Compound 38], the EC50 in data set [2] (Homo sapiens, HEK293) is approximately 934 nM. Also, in data set [2] (Homo sapiens, HEK293, at 3 μM), the inhibition at 3 µM was 60%. In addition, the half-life worked out at 5.1 min in data set [3] and 5.7 min in data set [1] (liver microsomes).

`Cc1ccccc1OCC(=O)Nc1ccc2cnccc2c1` [Compound 45]: the results for the half-life in data set [3] and in data set [1] (liver microsomes) were 12.1 min and 11 min, respectively.

Consider `Cc1ccccc1OCC(=O)Nc1ccc2nccnc2c1` [Compound 27], for which the “Response in TCF/LEF reporter assay” value in data set [2] was “supramaximal response”.

On to `CCn1cc2ccc(NC(=O)COc3ccccc3C)cc2n1` [Compound 37], for which the EC50 in data set [2] (Homo sapiens, HEK293) was 386 ± 199 nM.

`Cc1ccccc1OCC(=O)Nc1ccc2cnn(C)c2c1` [Compound 34] gave a solubility (thermodynamic) in data set [4] of 2 µg/mL (≈ 6.77 µM). In data set [5] (MDCK-mdr1, AB), this molecule registered an apparent permeability from apical to basolateral (Papp A→B) of 5.1 ×10⁻⁶ cm/s. This molecule also yielded a Papp B→A in data set [5] (MDCK-mdr1, BA) of 6.6 ×10⁻⁶ cm/s. The P-gp mediated efflux result in data set [6] is “no evidence of P-gp mediated efflux”. Further, the half-life in data set [3] was determined as 11.6 min. Moreover, the “MLM (t1/2 min)” value in data set [1] is listed as “Not detected ^a”. Further, the Hydrolytic stability entry in data set [7] is reported as “only parent was detected”.
